Test results published in patent US10231954B2, “Neurodegenerative therapies” (LYTIX BIOPHARMA AS, priority 2014, dated 2019).

Key:
Type in all cases: biochemical
JAK2 = JAK2 (Homo sapiens, UniProt O60674); experiment: Kinase profiling JAK2
Source text: (§1) Any value less that 25 is considered to be highly significant inhibition.

HIPK2 = HIPK2 (Homo sapiens, UniProt Q9H2X6); experiment: Kinase profiling HIPK2
Source text: as §1

PKA = PKA (Homo sapiens, UniProt P17612); experiment: Kinase profiling PKA
Source text: as §1

MKK1 = MKK1 (Homo sapiens, UniProt Q02750); experiment: Kinase profiling MKK1
Source text: as §1

PKBa = PKBa (Homo sapiens, UniProt P31749); experiment: Kinase profiling PKBa
Source text: as §1

Src = Src (Homo sapiens, UniProt P12931); experiment: Kinase profiling Src
Chain of Src (P12931 whole entry, species assumed): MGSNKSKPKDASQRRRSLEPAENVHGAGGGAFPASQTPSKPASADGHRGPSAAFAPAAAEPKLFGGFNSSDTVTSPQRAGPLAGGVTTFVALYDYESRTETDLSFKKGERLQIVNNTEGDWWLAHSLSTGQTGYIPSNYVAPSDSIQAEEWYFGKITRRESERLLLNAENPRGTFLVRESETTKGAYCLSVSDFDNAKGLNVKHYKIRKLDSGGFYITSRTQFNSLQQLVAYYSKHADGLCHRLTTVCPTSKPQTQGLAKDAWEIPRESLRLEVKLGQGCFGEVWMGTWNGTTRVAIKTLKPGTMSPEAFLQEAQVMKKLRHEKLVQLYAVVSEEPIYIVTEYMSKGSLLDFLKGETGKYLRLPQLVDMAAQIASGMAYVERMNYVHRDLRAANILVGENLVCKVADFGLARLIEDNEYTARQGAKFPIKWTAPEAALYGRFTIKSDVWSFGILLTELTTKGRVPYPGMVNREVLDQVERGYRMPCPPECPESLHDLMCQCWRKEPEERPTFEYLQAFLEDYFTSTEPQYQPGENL
Source text: as §1

EF2K = EF2K (Homo sapiens, UniProt O00418); experiment: Kinase profiling EF2K
Source text: as §1

ROCK 2 = ROCK 2 (Homo sapiens, UniProt O75116); experiment: Kinase profiling ROCK 2
Chain of ROCK 2 (O75116 whole entry, species assumed): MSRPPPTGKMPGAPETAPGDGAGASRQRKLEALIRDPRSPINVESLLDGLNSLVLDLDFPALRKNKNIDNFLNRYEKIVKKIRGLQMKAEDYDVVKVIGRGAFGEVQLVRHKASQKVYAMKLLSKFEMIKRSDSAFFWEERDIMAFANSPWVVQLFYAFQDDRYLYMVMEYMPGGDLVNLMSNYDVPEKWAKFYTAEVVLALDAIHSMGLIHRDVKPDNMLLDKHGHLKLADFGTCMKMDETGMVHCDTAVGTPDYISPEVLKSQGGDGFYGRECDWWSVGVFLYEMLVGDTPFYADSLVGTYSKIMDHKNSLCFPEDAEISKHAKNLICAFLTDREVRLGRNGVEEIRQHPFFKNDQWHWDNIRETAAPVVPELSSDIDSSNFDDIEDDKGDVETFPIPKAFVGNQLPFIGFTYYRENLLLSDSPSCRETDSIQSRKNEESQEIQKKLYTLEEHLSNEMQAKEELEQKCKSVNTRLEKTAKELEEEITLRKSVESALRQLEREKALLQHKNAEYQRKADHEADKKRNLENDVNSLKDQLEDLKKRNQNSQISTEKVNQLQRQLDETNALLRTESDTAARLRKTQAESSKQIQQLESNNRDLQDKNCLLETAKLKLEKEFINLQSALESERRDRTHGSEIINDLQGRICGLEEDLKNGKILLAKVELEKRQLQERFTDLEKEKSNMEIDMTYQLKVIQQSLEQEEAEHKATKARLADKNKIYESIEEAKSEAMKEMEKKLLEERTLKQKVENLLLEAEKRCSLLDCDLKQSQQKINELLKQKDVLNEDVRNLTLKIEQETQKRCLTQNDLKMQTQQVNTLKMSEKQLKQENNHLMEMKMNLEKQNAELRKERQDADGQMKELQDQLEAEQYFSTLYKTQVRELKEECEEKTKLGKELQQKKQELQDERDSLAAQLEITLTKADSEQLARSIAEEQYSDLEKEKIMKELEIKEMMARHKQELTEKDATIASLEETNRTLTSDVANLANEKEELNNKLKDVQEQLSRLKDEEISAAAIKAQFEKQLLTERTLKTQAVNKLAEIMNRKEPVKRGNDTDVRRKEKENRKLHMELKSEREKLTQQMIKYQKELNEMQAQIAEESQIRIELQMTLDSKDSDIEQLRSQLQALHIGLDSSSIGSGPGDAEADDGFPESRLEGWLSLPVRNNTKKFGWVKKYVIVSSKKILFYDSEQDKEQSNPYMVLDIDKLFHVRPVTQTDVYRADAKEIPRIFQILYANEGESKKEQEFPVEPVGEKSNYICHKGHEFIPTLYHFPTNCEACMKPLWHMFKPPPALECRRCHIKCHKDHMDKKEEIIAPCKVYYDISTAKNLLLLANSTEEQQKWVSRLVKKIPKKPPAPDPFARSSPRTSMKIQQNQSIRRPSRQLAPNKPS
Source text: as §1

NEK6 = NEK6 (Homo sapiens, UniProt Q9HC98); experiment: Kinase profiling NEK6
Chain of NEK6 (Q9HC98 whole entry, species assumed): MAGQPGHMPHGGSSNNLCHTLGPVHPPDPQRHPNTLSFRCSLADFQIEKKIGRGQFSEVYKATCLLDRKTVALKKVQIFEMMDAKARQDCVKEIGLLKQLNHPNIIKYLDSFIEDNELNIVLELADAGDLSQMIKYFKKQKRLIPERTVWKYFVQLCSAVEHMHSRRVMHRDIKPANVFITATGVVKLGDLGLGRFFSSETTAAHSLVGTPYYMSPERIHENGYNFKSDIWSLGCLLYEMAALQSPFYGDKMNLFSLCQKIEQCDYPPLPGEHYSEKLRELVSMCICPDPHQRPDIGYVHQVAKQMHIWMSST
Source text: as §1

EPH-A2 = EPH-A2 (Homo sapiens, UniProt P29317); experiment: Kinase profiling EPH-A2
Source text: as §1

SRPK1 = SRPK1 (Homo sapiens, UniProt Q96SB4); experiment: Kinase profiling SRPK1
Source text: as §1

TTK = molecular target: T1, TTK (Homo sapiens, UniProt P33981); experiment: Kinase profiling TTK
T1 sequence (P33981 1-857): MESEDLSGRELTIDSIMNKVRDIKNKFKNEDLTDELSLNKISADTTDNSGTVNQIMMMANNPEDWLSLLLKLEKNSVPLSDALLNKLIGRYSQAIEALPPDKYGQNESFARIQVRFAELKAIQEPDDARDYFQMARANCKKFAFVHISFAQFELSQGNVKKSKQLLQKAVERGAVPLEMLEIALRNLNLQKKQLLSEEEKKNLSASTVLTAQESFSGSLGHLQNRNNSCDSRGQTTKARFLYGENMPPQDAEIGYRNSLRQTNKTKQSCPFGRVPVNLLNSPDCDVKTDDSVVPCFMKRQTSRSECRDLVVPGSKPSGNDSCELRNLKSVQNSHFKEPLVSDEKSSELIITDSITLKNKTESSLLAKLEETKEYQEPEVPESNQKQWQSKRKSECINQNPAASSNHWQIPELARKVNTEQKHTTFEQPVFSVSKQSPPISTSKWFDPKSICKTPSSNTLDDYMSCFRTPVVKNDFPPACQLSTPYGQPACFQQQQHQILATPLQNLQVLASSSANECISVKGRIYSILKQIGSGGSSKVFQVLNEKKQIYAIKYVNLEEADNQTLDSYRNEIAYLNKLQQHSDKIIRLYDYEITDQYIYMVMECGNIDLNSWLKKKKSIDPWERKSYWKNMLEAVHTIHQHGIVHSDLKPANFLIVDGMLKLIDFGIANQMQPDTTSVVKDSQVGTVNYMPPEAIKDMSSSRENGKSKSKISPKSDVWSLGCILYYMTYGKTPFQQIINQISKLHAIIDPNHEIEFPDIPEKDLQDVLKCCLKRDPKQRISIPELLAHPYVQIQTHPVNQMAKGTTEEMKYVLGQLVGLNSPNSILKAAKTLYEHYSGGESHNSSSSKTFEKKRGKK
Source text: as §1

CAMK1 = CAMK1 (Homo sapiens, UniProt Q14012); experiment: Kinase profiling CAMK1
Chain of CAMK1 (Q14012 whole entry, species assumed): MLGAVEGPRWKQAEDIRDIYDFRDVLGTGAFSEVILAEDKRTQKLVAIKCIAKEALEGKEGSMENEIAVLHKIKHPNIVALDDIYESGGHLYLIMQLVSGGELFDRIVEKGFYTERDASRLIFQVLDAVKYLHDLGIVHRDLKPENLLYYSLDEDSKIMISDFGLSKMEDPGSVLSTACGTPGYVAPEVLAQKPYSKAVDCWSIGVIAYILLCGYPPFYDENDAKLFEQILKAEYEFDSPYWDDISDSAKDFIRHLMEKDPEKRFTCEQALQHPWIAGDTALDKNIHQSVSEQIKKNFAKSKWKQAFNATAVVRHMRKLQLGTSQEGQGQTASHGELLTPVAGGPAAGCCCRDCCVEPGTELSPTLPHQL
Source text: as §1

Lck = Lck (Homo sapiens, UniProt P06239); experiment: Kinase profiling Lck
Source text: as §1

[1] = 100 micromolar inhibitor concentration, 100 is no change
[2] = 100 micromolar inhibitor, 100 = no change

Chain of HIPK2 (Q9H2X6 whole entry, species assumed): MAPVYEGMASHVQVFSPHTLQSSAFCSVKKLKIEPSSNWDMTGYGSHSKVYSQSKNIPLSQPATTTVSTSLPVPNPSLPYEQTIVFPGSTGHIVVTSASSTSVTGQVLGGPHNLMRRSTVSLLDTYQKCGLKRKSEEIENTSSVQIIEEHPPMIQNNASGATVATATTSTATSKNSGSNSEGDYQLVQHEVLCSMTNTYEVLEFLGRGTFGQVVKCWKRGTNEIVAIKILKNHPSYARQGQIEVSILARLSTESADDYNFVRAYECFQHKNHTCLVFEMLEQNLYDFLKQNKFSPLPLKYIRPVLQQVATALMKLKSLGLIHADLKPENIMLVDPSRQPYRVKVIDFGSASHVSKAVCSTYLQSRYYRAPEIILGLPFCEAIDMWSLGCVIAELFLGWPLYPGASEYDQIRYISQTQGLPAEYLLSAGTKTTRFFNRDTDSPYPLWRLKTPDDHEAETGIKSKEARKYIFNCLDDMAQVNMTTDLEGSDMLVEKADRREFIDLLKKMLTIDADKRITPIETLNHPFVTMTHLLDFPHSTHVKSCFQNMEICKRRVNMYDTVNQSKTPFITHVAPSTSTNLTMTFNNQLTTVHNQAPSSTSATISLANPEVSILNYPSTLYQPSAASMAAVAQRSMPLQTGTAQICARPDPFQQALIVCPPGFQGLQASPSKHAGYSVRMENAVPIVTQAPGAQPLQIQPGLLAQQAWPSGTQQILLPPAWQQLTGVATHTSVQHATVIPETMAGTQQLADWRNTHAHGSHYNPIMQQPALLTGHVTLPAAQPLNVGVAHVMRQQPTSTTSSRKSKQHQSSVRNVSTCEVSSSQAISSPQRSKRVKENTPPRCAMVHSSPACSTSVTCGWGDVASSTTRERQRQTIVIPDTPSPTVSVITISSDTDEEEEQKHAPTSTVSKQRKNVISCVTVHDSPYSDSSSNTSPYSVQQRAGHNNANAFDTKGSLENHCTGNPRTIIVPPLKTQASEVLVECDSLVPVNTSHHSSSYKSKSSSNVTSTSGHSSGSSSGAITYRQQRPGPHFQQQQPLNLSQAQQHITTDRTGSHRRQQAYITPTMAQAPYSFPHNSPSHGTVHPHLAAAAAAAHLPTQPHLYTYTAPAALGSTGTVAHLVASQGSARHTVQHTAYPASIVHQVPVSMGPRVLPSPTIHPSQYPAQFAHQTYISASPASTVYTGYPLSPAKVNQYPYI
Chain of JAK2 (O60674 whole entry, species assumed): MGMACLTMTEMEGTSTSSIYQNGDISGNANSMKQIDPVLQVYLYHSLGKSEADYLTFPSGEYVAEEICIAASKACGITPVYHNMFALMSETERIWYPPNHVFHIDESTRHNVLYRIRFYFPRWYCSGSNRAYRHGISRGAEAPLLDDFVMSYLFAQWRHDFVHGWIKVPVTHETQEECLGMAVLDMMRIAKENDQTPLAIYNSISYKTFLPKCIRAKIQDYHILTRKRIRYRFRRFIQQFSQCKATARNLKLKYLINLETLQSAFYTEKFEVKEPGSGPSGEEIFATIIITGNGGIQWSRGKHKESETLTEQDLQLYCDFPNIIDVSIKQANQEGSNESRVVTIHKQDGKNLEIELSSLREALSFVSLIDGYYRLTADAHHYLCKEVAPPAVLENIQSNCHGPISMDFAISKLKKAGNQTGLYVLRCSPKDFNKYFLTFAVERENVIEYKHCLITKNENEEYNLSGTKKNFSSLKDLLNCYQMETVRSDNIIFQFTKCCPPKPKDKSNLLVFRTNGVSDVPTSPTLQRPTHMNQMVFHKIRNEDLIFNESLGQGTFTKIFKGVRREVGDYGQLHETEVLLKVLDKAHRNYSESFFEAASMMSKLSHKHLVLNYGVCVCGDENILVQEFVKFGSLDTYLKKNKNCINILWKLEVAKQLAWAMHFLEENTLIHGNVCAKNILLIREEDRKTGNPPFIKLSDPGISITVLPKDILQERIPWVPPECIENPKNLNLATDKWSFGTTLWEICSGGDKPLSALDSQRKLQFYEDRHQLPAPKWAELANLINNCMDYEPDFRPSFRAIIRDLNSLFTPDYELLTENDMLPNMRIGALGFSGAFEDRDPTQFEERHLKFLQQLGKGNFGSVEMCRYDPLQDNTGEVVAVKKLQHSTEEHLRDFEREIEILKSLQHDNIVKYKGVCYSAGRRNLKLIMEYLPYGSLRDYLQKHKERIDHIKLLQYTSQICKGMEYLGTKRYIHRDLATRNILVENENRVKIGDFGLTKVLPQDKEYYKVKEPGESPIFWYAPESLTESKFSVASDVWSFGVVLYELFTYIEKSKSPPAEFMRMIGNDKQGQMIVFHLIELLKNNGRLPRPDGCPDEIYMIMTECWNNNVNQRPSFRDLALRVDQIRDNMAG

COC(=O)c1cccc(C(=O)Nc2nc3cc(OC)ccc3s2)c1 [Compound 03-108]
residual kinase activity, JAK2 (JAK2; [1]): 85
residual kinase activity, HIPK2 (HIPK2; [1]): 87
residual kinase activity, PKA (PKA; [1]): 92
residual kinase activity, MKK1 (MKK1; [1]): 94
residual kinase activity, PKBa (PKBa; [1]): 106
residual kinase activity, Src (Src; [1]): 169
residual kinase activity, EF2K (EF2K; [1]): 91
residual kinase activity, ROCK 2 (ROCK 2; [1]): 52
residual kinase activity, NEK6 (NEK6; [1]): 93
residual kinase activity, EPH-A2 (EPH-A2; [1]): 76
residual kinase activity, SRPK1 (SRPK1; [1]): 68
residual kinase activity, TTK (TTK; [1]): 94
residual kinase activity, CAMK1 (CAMK1; [1]): 96
residual kinase activity, Lck (Lck; [1]): 100

COc1ccc2sc(NC(=O)c3cccc(C(N)=O)c3)nc2c1 [Compound 03-113]
residual kinase activity, JAK2 (JAK2; [1]): 113
residual kinase activity, HIPK2 (HIPK2; [1]): 96
residual kinase activity, PKA (PKA; [1]): 101
residual kinase activity, MKK1 (MKK1; [1]): 119
residual kinase activity, PKBa (PKBa; [1]): 89
residual kinase activity, Src (Src; [1]): 79
residual kinase activity, EF2K (EF2K; [1]): 127
residual kinase activity, ROCK 2 (ROCK 2; [1]): 68
residual kinase activity, NEK6 (NEK6; [1]): 99
residual kinase activity, EPH-A2 (EPH-A2; [1]): 96
residual kinase activity, SRPK1 (SRPK1; [1]): 82
residual kinase activity, TTK (TTK; [1]): 95
residual kinase activity, CAMK1 (CAMK1; [1]): 102
residual kinase activity, Lck (Lck; [1]): 111

N#Cc1ccc2nc(NC(=O)c3ccccc3)sc2c1 [Compound 03-106]
residual kinase activity, JAK2 (JAK2; [1]): 87
residual kinase activity, HIPK2 (HIPK2; [1]): 62
residual kinase activity, PKA (PKA; [1]): 91
residual kinase activity, MKK1 (MKK1; [1]): 58
residual kinase activity, PKBa (PKBa; [1]): 67
residual kinase activity, Src (Src; [1]): 85
residual kinase activity, EF2K (EF2K; [1]): 100
residual kinase activity, ROCK 2 (ROCK 2; [1]): 125
residual kinase activity, NEK6 (NEK6; [1]): 97
residual kinase activity, EPH-A2 (EPH-A2; [1]): 89
residual kinase activity, SRPK1 (SRPK1; [1]): 7
residual kinase activity, TTK (TTK; [1]): 42
residual kinase activity, CAMK1 (CAMK1; [1]): 69
residual kinase activity, Lck (Lck; [1]): 95

COc1ccc2nc(NC(=O)c3ccccc3)sc2c1 [Compound 03-98]
residual kinase activity, JAK2 (JAK2; [1]): 81
residual kinase activity, HIPK2 (HIPK2; [1]): 41
residual kinase activity, PKA (PKA; [1]): 90
residual kinase activity, MKK1 (MKK1; [1]): 105
residual kinase activity, PKBa (PKBa; [1]): 103
residual kinase activity, Src (Src; [1]): 172
residual kinase activity, EF2K (EF2K; [1]): 108
residual kinase activity, ROCK 2 (ROCK 2; [1]): 66
residual kinase activity, NEK6 (NEK6; [1]): 94
residual kinase activity, EPH-A2 (EPH-A2; [1]): 95
residual kinase activity, SRPK1 (SRPK1; [1]): 10
residual kinase activity, TTK (TTK; [1]): 18
residual kinase activity, CAMK1 (CAMK1; [1]): 68
residual kinase activity, Lck (Lck; [1]): 93

CC(=O)Nc1nc2ccc(F)cc2s1 [Compound 03-94]
residual kinase activity, JAK2 (JAK2; [1]): 49
residual kinase activity, HIPK2 (HIPK2; [1]): 27
residual kinase activity, PKA (PKA; [1]): 93
residual kinase activity, MKK1 (MKK1; [1]): 76
residual kinase activity, PKBa (PKBa; [1]): 94
residual kinase activity, Src (Src; [1]): 76
residual kinase activity, EF2K (EF2K; [1]): 96
residual kinase activity, ROCK 2 (ROCK 2; [1]): 70
residual kinase activity, NEK6 (NEK6; [1]): 92
residual kinase activity, EPH-A2 (EPH-A2; [1]): 94
residual kinase activity, SRPK1 (SRPK1; [1]): 75
residual kinase activity, TTK (TTK; [1]): 37
residual kinase activity, CAMK1 (CAMK1; [1]): 86
residual kinase activity, Lck (Lck; [1]): 92

O=C(Nc1nc2ccc(C(F)(F)F)cc2s1)c1ccccc1 [Compound 03-99]
residual kinase activity, JAK2 (JAK2; [1]): 87
residual kinase activity, HIPK2 (HIPK2; [1]): 90
residual kinase activity, PKA (PKA; [1]): 96
residual kinase activity, MKK1 (MKK1; [1]): 87
residual kinase activity, PKBa (PKBa; [1]): 91
residual kinase activity, Src (Src; [1]): 87
residual kinase activity, EF2K (EF2K; [1]): 99
residual kinase activity, ROCK 2 (ROCK 2; [1]): 97
residual kinase activity, NEK6 (NEK6; [1]): 94
residual kinase activity, EPH-A2 (EPH-A2; [1]): 110
residual kinase activity, SRPK1 (SRPK1; [1]): 61
residual kinase activity, TTK (TTK; [1]): 32
residual kinase activity, CAMK1 (CAMK1; [1]): 84
residual kinase activity, Lck (Lck; [1]): 92

COC(=O)c1cccc(C(=O)Nc2nc3ccc(F)cc3s2)c1 [Compound 03-110]
residual kinase activity, JAK2 (JAK2; [1]): 89
residual kinase activity, HIPK2 (HIPK2; [1]): 66
residual kinase activity, PKA (PKA; [1]): 93
residual kinase activity, MKK1 (MKK1; [1]): 70
residual kinase activity, PKBa (PKBa; [1]): 109
residual kinase activity, Src (Src; [1]): 178
residual kinase activity, EF2K (EF2K; [1]): 94
residual kinase activity, ROCK 2 (ROCK 2; [1]): 86
residual kinase activity, NEK6 (NEK6; [1]): 87
residual kinase activity, EPH-A2 (EPH-A2; [1]): 84
residual kinase activity, SRPK1 (SRPK1; [1]): 55
residual kinase activity, TTK (TTK; [1]): 35
residual kinase activity, CAMK1 (CAMK1; [1]): 99
residual kinase activity, Lck (Lck; [1]): 93

COc1ccc2nc(C(=O)Nc3ccccc3)sc2c1 [Compound 13-03]
residual kinase activity, JAK2 (JAK2; [2]): 93
residual kinase activity, HIPK2 (HIPK2; [2]): 96
residual kinase activity, PKA (PKA; [2]): 97
residual kinase activity, MKK1 (MKK1; [2]): 70
residual kinase activity, PKBa (PKBa; [2]): 106
residual kinase activity, Src (Src; [2]): 100
residual kinase activity, EF2K (EF2K; [2]): 110
residual kinase activity, ROCK 2 (ROCK 2; [2]): 70
residual kinase activity, NEK6 (NEK6; [2]): 107
residual kinase activity, EPH-A2 (EPH-A2; [2]): 63
residual kinase activity, SRPK1 (SRPK1; [2]): 86
residual kinase activity, TTK (TTK; [2]): 108
residual kinase activity, CAMK1 (CAMK1; [2]): 94
residual kinase activity, Lck (Lck; [2]): 89

O=C(Nc1nc2ccc(F)cc2s1)c1ccccc1 [Compound 03-92]
residual kinase activity, JAK2 (JAK2; [1]): 109
residual kinase activity, HIPK2 (HIPK2; [1]): 78
residual kinase activity, PKA (PKA; [1]): 96
residual kinase activity, MKK1 (MKK1; [1]): 93
residual kinase activity, PKBa (PKBa; [1]): 99
residual kinase activity, Src (Src; [1]): 74
residual kinase activity, EF2K (EF2K; [1]): 134
residual kinase activity, ROCK 2 (ROCK 2; [1]): 95
residual kinase activity, NEK6 (NEK6; [1]): 106
residual kinase activity, EPH-A2 (EPH-A2; [1]): 98
residual kinase activity, SRPK1 (SRPK1; [1]): 19
residual kinase activity, TTK (TTK; [1]): 47
residual kinase activity, CAMK1 (CAMK1; [1]): 97
residual kinase activity, Lck (Lck; [1]): 102

COc1ccc2sc(NC(=O)c3ccccc3)nc2c1 [Compound 03-95]
residual kinase activity, JAK2 (JAK2; [1]): 86
residual kinase activity, HIPK2 (HIPK2; [1]): 74
residual kinase activity, PKA (PKA; [1]): 83
residual kinase activity, MKK1 (MKK1; [1]): 92
residual kinase activity, PKBa (PKBa; [1]): 80
residual kinase activity, Src (Src; [1]): 77
residual kinase activity, EF2K (EF2K; [1]): 115
residual kinase activity, ROCK 2 (ROCK 2; [1]): 54
residual kinase activity, NEK6 (NEK6; [1]): 86
residual kinase activity, EPH-A2 (EPH-A2; [1]): 91
residual kinase activity, SRPK1 (SRPK1; [1]): 42
residual kinase activity, TTK (TTK; [1]): 71
residual kinase activity, CAMK1 (CAMK1; [1]): 76
residual kinase activity, Lck (Lck; [1]): 93

O=C(Nc1nc2cc(O)ccc2s1)c1ccccc1 [Compound 03-102]
residual kinase activity, JAK2 (JAK2; [1]): 47
residual kinase activity, HIPK2 (HIPK2; [1]): 36
residual kinase activity, PKA (PKA; [1]): 93
residual kinase activity, MKK1 (MKK1; [1]): 52
residual kinase activity, PKBa (PKBa; [1]): 88
residual kinase activity, Src (Src; [1]): 30
residual kinase activity, EF2K (EF2K; [1]): 92
residual kinase activity, ROCK 2 (ROCK 2; [1]): 47
residual kinase activity, NEK6 (NEK6; [1]): 112
residual kinase activity, EPH-A2 (EPH-A2; [1]): 65
residual kinase activity, SRPK1 (SRPK1; [1]): 10
residual kinase activity, TTK (TTK; [1]): 30
residual kinase activity, CAMK1 (CAMK1; [1]): 72
residual kinase activity, Lck (Lck; [1]): 98

COc1cccc(NC(=O)Nc2nc3cc(O)ccc3s2)c1 [Compound 13-62]
residual kinase activity, JAK2 (JAK2; [2]): 31
residual kinase activity, HIPK2 (HIPK2; [2]): 23
residual kinase activity, PKA (PKA; [2]): 104
residual kinase activity, MKK1 (MKK1; [2]): 15
residual kinase activity, PKBa (PKBa; [2]): 66
residual kinase activity, Src (Src; [2]): 7
residual kinase activity, EF2K (EF2K; [2]): 85
residual kinase activity, ROCK 2 (ROCK 2; [2]): 11
residual kinase activity, NEK6 (NEK6; [2]): 104
residual kinase activity, EPH-A2 (EPH-A2; [2]): 81
residual kinase activity, SRPK1 (SRPK1; [2]): 3
residual kinase activity, TTK (TTK; [2]): 25
residual kinase activity, CAMK1 (CAMK1; [2]): 8
residual kinase activity, Lck (Lck; [2]): 11
